Measurements published in paper PMC11951252 (RSC Advances, 2025).
“And” between values parts separate entries of the source, which are not always exact repeats. Equal values may be shown once.

What was measured:
[1] = test system: four human cancer cell lines (HCT-116, PC-3, MCF-7, MDAMB-231); assay: Antiproliferative MTT assay, average over four cancer cell lines; type: cell-based; details: for GI50: average IC50 of the four cancer cell lines; for fold less potent than compound 4n (GI50): ratio of GI50 values
MCF-7 = assay: Antiproliferative MTT assay, MCF-7; type: cell-based, human; details: for IC50: Homo sapiens, MCF7, read-out: Antiproliferative activity IC50 ± SEM, MCF-7
PC-3 = assay: Antiproliferative MTT assay, PC-3; type: cell-based; details: Homo sapiens, PC-3, read-out: Antiproliferative activity IC50 ± SEM, PC-3
MDAMB-231 = assay: Antiproliferative MTT assay, MDAMB-231; type: cell-based, human; details: for times more potent than sorafenib: MDAMB-231 breast cancer cell line
HCT-116 = assay: Antiproliferative MTT assay, HCT-116; type: cell-based; details: Homo sapiens, HCT-116, read-out: Antiproliferative activity IC50 ± SEM, HCT-116
EGFR-TK = EGFR-TK (Homo sapiens, UniProt P00533); assay: EGFR inhibitory assay; type: biochemical; details: for IC50: EGFR IC50 ± SEM
HER2-TK = HER2-TK (Homo sapiens, UniProt P04626); assay: HER2 inhibitory assay; type: biochemical
MDA-MB 231 cells = assay: Apoptosis induction analysis; type: cell-based, human
MDA-MB 231 cancer cells = assay: Cell cycle analysis; type: cell-based, human
BRAF^V600E = details: read-out: BRAF^V600E IC50; cited from earlier work

Chain of EGFR-TK (P00533 669-1210): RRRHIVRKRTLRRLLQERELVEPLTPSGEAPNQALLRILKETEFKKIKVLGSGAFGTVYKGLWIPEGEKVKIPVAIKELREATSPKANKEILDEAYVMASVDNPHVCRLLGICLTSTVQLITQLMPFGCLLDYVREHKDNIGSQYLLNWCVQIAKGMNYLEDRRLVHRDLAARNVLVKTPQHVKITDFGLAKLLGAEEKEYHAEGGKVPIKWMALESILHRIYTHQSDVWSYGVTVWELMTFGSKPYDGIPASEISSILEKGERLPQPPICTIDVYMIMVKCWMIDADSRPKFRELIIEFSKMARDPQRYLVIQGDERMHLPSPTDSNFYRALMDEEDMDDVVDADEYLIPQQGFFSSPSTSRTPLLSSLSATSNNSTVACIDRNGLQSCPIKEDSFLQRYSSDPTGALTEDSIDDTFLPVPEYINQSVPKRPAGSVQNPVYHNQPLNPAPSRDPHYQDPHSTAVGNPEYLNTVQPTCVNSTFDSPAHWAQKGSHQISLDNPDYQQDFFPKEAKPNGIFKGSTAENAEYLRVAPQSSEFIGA
Chain of HER2-TK (P04626 676-1255 limits assumed): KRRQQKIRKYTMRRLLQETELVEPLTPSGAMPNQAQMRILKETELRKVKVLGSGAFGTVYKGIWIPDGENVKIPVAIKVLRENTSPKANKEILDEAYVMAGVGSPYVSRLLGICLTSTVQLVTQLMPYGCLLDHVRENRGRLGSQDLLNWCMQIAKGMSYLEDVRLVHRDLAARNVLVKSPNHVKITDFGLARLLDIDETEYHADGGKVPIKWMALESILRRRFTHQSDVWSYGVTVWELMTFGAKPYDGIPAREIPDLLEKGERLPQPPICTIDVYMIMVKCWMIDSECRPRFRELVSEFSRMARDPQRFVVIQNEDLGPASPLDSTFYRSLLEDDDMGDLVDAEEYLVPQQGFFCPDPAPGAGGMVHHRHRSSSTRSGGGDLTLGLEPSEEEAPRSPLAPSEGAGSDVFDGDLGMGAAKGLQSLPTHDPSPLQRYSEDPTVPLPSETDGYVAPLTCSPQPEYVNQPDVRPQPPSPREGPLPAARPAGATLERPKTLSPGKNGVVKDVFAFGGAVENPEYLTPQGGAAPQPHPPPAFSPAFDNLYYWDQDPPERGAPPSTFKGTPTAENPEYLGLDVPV

| SMILES | GI50 ([1]; Homo sapiens) [µM] | IC50 (MCF-7) [µM] | IC50 (PC-3) [µM] | IC50 (HCT-116) [µM] | further results |
| --- | --- | --- | --- | --- | --- |
| COc1ccc(N2CCN(CC(=O)Nc3ccc(C(=O)C=Cc4ccco4)cc3)CC2)cc1 [4g, N-(4-(3-(Furan-2-yl)acryloyl)phenyl)-2-(4-(4-methoxyphenyl)piperazin-1-yl)acetamide] | 12 | 9.37 ± 0.7 | 14.2 ± 1.2 | 17.3 ± 1.4 | fold less potent than compound 4n (GI50) [1]: 1.7; fold less potent than 4n, MCF-7 (MCF-7): 2 fold; fold less potent than 4n, MDAMB-231 (MDAMB-231): 2 fold |
| COc1ccc(N2CCN(CC(=O)Nc3ccc(C4=NN(C(C)=O)C(c5cc(OC)c(OC)c(OC)c5)C4)cc3)CC2)cc1 (stereo not shown) [5d, N-(4-(1-Acetyl-5-(3,4,5-trimethoxyphenyl)-4,5-dihydro-1H-pyrazol-3-yl)phenyl)-2-(4-(4-methoxyphenyl)piperazin-1-yl)acetamide] | 7 | 5.05 ± 0.4 | 13 ± 1 | 6.47 ± 0.4 | IC50 (EGFR-TK): 0.209 µM; IC50 (HER2-TK; HER2 IC50, as printed in text): 0.061 µM; IC50 (HER2-TK; HER2 IC50 ± SEM, Table 3): 0.101 µM; times more potent than sorafenib (MDAMB-231): 2.7 times; early apoptosis enhanced more than late apoptosis, fold (MDA-MB 231 cells; MDA-MB 231): 5 fold; Apoptosis Early (MDA-MB 231 cells; MDA-MB cancer cells, 24 h): 17.13; Apoptosis Late (MDA-MB 231 cells; MDA-MB cancer cells, 24 h): 8.89; Apoptosis Total (MDA-MB 231 cells; MDA-MB cancer cells, 24 h): 29.59; Necrosis (MDA-MB 231 cells; MDA-MB cancer cells, 24 h): 3.57; Cell cycle analysis, Comment (MDA-MB 231 cancer cells; MDA-MB 231, 24 h, 25 μM): Cell cycle arrest @ G1; DNA content % G0–G1 (MDA-MB 231 cancer cells; MDA-MB 231, 24 h, 25 μM): 78.53%; DNA content % G2/M (MDA-MB 231 cancer cells; MDA-MB 231, 24 h, 25 μM): 3.36%; DNA content % S (MDA-MB 231 cancer cells; MDA-MB 231, 24 h, 25 μM): 18.11%; percentage of pre-G1 apoptosis (MDA-MB 231 cancer cells; MDA-MB 231, 24 h incubation): 78.53% |
| CNC(=O)c1cc(Oc2ccc(NC(=O)Nc3ccc(Cl)c(C(F)(F)F)c3)cc2)ccn1 [Sorafenib, reference compound] | 8 |  | 11.5 ± 0.9 |  | GI50 [1]: 7 µM |
| Cc1ccc(C=CC(=O)c2ccc(NC(=O)CN3CCN(c4ccc(Cl)cc4)CC3)cc2)cc1 [4i, 2-(4-(4-Chlorophenyl)piperazin-1-yl)-N-(4-(3-(p-tolyl)acryloyl)phenyl)acetamide] | 90 | 91.6 ± 4.6 | > 100 | 86.1 ± 4.3 | fold less potent than compound 4n (GI50) [1]: 13 |
| COc1ccc(C2CC(c3ccc(NC(=O)CN4CCN(c5ccc(OC)cc5)CC4)cc3)=NN2C(C)=O)cc1 (stereo not shown) [5c, N-(4-(1-Acetyl-5-(4-methoxyphenyl)-4,5-dihydro-1H-pyrazol-3-yl)phenyl)-2-(4-(4-methoxyphenyl)piperazin-1-yl)acetamide] | 13 | 9.68 ± 0.8 | 16.2 ± 1.3 | 18.6 ± 1.5 |  |
| COc1ccc(N2CCN(CC(=O)Nc3ccc(C4=NN(C(C)=O)C(c5ccc(C)cc5)C4)cc3)CC2)cc1 (stereo not shown) [5b, N-(4-(1-Acetyl-5-(p-tolyl)-4,5-dihydro-1H-pyrazol-3-yl)phenyl)-2-(4-(4-methoxy-phenyl)piperazin-1-yl)acetamide] | 18 | 13.8 ± 1.1 | 21.9 ± 1.6 | 24.9 ± 1.8 |  |
| O=C(CN1CCN(c2ccc(Cl)cc2)CC1)Nc1ccc(C(=O)C=Cc2ccc(Br)cc2)cc1 [4l, N-(4-(3-(4-Bromophenyl)acryloyl)phenyl)-2-(4-(4-chlorophenyl)piperazin-1-yl)acetamide] | 76 | 80.8 ± 3.9 | 86.4 ± 4.3 | 75.4 ± 4.1 | fold less potent than compound 4n (GI50) [1]: 11 |
| COc1ccc(N2CCN(CC(=O)Nc3ccc(C4=NN(C(C)=O)C(c5ccco5)C4)cc3)CC2)cc1 (stereo not shown) [5g, N-(4-(1-Acetyl-5-(furan-2-yl)-4,5-dihydro-1H-pyrazol-3-yl)phenyl)-2-(4-(4-methoxy-phenyl)piperazin-1-yl)acetamide] | 6 | 3.78 ± 0.2 | 7.48 ± 0.6 | 8.06 ± 0.7 | times less effective as EGFR inhibitors than erlotinib (EGFR-TK): at least 10 times; IC50 (EGFR-TK): 2.38 µM; IC50 (HER2-TK; HER2 IC50 ± SEM, Table 3): 1.54 µM |
| COc1cccc2c1C(=O)c1c(O)c3c(c(O)c1C2=O)C[C@@](O)(C(=O)CO)C[C@@H]3O[C@H]1C[C@H](N)[C@H](O)[C@H](C)O1 [Doxorubicin, reference compound] | 5 |  |  |  |  |
| COc1ccc(N2CCN(CC(=O)Nc3ccc(C(=O)C=Cc4ccc(Cl)cc4Cl)cc3)CC2)cc1 [4f, N-(4-(3-(2,4-Dichlorophenyl)acryloyl)phenyl)-2-(4-(4-methoxyphenyl)piperazin-1-yl)acetamide] |  | > 100 | > 100 | > 100 |  |
| CC(=O)N1N=C(c2ccc(NC(=O)CN3CCN(c4ccc(Cl)cc4)CC3)cc2)CC1c1ccco1 (stereo not shown) [5n, N-(4-(1-Acetyl-5-(furan-2-yl)-4,5-dihydro-1H-pyrazol-3-yl)phenyl)-2-(4-(4-chlorophenyl)piperazin-1-yl)acetamide] |  | 23.9 ± 1.7 | 36.8 ± 2.2 | 39.6 ± 2.3 |  |
| CC(=O)N1N=C(c2ccc(NC(=O)CN3CCN(c4ccc(Cl)cc4)CC3)cc2)CC1c1ccc(Cl)cc1Cl (stereo not shown) [5m, N-(4-(1-Acetyl-5-(2,4-dichlorophenyl)-4,5-dihydro-1H-pyrazol-3-yl)phenyl)-2-(4-(4-chlorophenyl)piperazin-1-yl)acetamide] |  | 71.3 ± 3.6 | 76.7 ± 3.9 | 69.9 ± 3.7 |  |
| COc1ccc(N2CCN(CC(=O)Nc3ccc(C4=NN(C(C)=O)C(c5ccccc5)C4)cc3)CC2)cc1 (stereo not shown) [5a, N-(4-(1-Acetyl-5-phenyl-4,5-dihydro-1H-pyrazol-3-yl)phenyl)-2-(4-(4-methoxyphenyl)piperazin-1-yl)acetamide] |  | 19.6 ± 1.4 | 46.3 ± 2.5 | 32.1 ± 2.1 |  |
| COc1ccc(C2CC(c3ccc(NC(=O)CN4CCN(c5ccc(Cl)cc5)CC4)cc3)=NN2C(C)=O)cc1 (stereo not shown) [5j, N-(4-(1-Acetyl-5-(4-methoxyphenyl)-4,5-dihydro-1H-pyrazol-3-yl)phenyl)-2-(4-(4-chlorophenyl)piperazin-1-yl)acetamide] | 100 | 94 ± 4.9 | > 100 | > 100 |  |
| COc1cc(C2CC(c3ccc(NC(=O)CN4CCN(c5ccc(Cl)cc5)CC4)cc3)=NN2C(C)=O)cc(OC)c1OC (stereo not shown) [5k, N-(4-(1-Acetyl-5-(3,4,5-trimethoxyphenyl)-4,5-dihydro-1H-pyrazol-3-yl)phenyl)-2-(4-(4-chlorophenyl)piperazin-1-yl)acetamide] |  | 40.8 ± 2.4 | 45.7 ± 2.6 | 52.8 ± 3 |  |
| O=C(CN1CCN(c2ccc(Cl)cc2)CC1)Nc1ccc(C(=O)C=Cc2ccco2)cc1 [4n, 2-(4-(4-Chlorophenyl)piperazin-1-yl)-N-(4-(3-(furan-2-yl)acryloyl)phenyl)acetamide] | 7 | 6.94 ± 0.4 | 9.08 ± 0.8 | 8.67 ± 0.9 | times less effective as EGFR inhibitors than erlotinib (EGFR-TK): at least 10 times; IC50 (EGFR-TK): 0.799 µM and 1.78 µM; IC50 (HER2-TK; HER2 IC50 ± SEM, Table 3): 0.505 µM; times more potent than sorafenib (MDAMB-231): 1.6 times |
